# From patent publication US10513523B2, “Imidazopyrazines and pyrazolopyrimidines and their use as AMPA receptor modulators” (Janssen Pharmaceutica NV, priority 2015, dated 2019)
# Molecular target: GluA1o-γ8 (GRIA1o-CACNG8 fusion construct; TARP γ8 dependent AMPA receptor) (Homo sapiens (Human), UniProt P42261+Q8WXS5)
# Experiment: Calcium flux assay (FLIPR), inhibition of glutamate response of GluA1o-γ8 channel
# Assay type: cell-based
# Conditions: HEK293 cells stably expressing GRIA1o-CACNG8 fusion; 15 μM glutamate; pIC50 = negative log of IC50 in molar; read-out: GluR1-γ8 (pIC50) (converted)
# Summary of the method: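 Potency is the midpoint of a four-parameter logistic fit to control-normalized FLIPR calcium responses elicited by 15 μM glutamate. Stable HEK293 cells carried a fused GluA1o-γ8 construct and were preincubated with compound and calcium dye in pH 7.4 HEPES buffer.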
# Sequence of GluA1o-γ8 (GRIA1o-CACNG8 fusion construct; TARP γ8 dependent AMPA receptor) (P42261 other isoform, or with tags, fused parts or gaps): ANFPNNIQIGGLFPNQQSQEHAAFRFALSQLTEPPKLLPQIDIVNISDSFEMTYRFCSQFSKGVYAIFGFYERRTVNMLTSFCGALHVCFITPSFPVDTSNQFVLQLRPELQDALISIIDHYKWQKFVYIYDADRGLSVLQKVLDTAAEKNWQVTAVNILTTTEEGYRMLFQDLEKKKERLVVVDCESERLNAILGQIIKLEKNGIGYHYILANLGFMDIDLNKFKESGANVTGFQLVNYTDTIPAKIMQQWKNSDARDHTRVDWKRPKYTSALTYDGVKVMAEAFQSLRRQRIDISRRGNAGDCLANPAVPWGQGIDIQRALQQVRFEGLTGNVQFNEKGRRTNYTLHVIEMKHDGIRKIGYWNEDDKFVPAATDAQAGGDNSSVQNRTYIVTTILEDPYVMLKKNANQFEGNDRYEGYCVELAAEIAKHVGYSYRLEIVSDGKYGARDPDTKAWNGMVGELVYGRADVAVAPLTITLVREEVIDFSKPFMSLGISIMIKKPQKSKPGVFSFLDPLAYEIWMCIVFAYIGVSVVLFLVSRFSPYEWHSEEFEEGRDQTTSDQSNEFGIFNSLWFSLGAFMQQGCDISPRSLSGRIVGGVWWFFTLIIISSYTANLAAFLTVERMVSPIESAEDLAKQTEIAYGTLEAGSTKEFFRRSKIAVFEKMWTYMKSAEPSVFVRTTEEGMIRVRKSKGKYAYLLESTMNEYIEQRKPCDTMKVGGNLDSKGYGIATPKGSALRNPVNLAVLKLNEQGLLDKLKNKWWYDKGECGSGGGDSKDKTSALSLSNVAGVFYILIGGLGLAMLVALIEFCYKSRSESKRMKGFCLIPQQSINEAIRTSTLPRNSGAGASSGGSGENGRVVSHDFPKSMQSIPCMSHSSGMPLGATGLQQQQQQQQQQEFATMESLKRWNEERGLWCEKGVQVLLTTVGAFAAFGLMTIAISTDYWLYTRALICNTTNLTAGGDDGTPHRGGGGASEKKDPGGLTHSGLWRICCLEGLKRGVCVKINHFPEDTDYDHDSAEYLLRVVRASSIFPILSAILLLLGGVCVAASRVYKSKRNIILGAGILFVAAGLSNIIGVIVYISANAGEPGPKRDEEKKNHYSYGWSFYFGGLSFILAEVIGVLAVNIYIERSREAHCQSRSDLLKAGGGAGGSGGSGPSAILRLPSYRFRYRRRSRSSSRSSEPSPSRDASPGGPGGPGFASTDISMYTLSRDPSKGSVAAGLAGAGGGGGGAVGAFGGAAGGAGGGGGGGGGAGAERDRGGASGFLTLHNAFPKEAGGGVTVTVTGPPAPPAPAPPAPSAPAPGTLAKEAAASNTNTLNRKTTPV
row,Structure (SMILES),IC50 [nM]
1,"CC(C)(C)c1nc2c(N3CCOCC3)nccn2c1-c1ccc2c(c1)CC(=O)N2 [Example 86, 5-(2-tert-Butyl-8-morpholino-imidazo[1,2-a]pyrazin-3-yl)indolin-2-one]",158
2,"N#Cc1ccc(-c2nc3c(N4CCOCC4)nccn3c2-c2ccc(O)cc2)cc1 [Example 95, 4-[3-(4-Hydroxyphenyl)-8-morpholino-imidazo[1,2-a]pyrazin-2-yl]benzonitrile]",31.6
3,"Fc1ccc(-c2nc3c(N4CCOCC4)nccn3c2-c2ccc3[nH]nnc3c2)cc1 [Example 30, 4-[3-(1H-Benzotriazol-5-yl)-2-(4-fluorophenyl)imidazo[1,2-a]pyrazin-8-yl]morpholine]",79.4
4,"O=C1Cc2cc(-c3c(-c4ccc(F)cc4)nc4c(N5CC(F)C5)nccn34)ccc2N1 [Example 59, 5-[8-(3-Fluoroazetidin-1-yl)-2-(4-fluorophenyl)imidazo[1,2-a]pyrazin-3-yl]indolin-2-one]",0.501
5,"O=C1Cc2cc(-c3c(-c4ccc(F)cc4)nc4c(N5CC[C@H](O)[C@H](F)C5)nccn34)ccc2N1 (relative stereo) [Example 73, (cis)-5-[8-(3-Fluoro-4-hydroxy-1-piperidyl)-2-(4-fluorophenyl)imidazo[1,2-a]pyrazin-3-yl]indolin-2-one]",0.316
6,"COc1nccn2c(-c3ccc4c(c3)CC(=O)N4)c(-c3ccc(F)cc3)nc12 [Example 247, 5-[2-(4-Fluorophenyl)-8-methoxy-imidazo[1,2-a]pyrazin-3-yl]indolin-2-one]",79.4
7,"CNc1nccn2c(-c3ccc4[nH]c(=O)[nH]c4c3)c(-c3ccc(F)cc3)nc12 [Example 104, 5-[2-(4-Fluorophenyl)-8-(methylamino)imidazo[1,2-a]pyrazin-3-yl]-1,3-dihydrobenzimidazol-2-one]",6.31
8,"O=C1Cc2cc(-c3c(C(=O)NCc4ccccc4)nc4c(N5CCOCC5)nccn34)ccc2N1 [Example 142, N-Benzyl-8-morpholino-3-(2-oxoindolin-5-yl)imidazo[1,2-a]pyrazine-2-carboxamide]",31.6
9,"O=C1Cc2cc(-c3c(C(=O)c4ccccc4)nc4c(N5CCC(O)CC5)nccn34)ccc2N1 [Example 154, 5-[2-Benzoyl-8-(4-hydroxy-1-piperidyl)imidazo[1,2-a]pyrazin-3-yl]indolin-2-one]",1.58
10,"CC(C)(C)c1nn2c(N3CC(F)(F)C3)nccc2c1-c1ccc2c(c1)CC(=O)N2 [Example 183, 5-[2-tert-Butyl-7-(3,3-difluoroazetidin-1-yl)pyrazolo[1,5-c]pyrimidin-3-yl]indolin-2-one]",63.1
11,"CC(=O)N[C@@H]1CCN(c2nccn3c(-c4ccc5c(c4)CC(=O)N5)c(-c4ccc(F)cc4)nc23)C1 (single isomer, unassigned) [Example 150]",3.16
12,"CC(C)(C)c1nn2cnc(C(F)(F)F)cc2c1-c1ccc2[nH]c(=O)sc2c1 [Example 232, 6-[2-tert-Butyl-5-(trifluoromethyl)pyrazolo[1,5-c]pyrimidin-3-yl]-3H-1,3-benzothiazol-2-one]",316
13,"O=C(NC1CCCCC1)c1nc2c(N3CCOCC3)nccn2c1-c1ccc2[nH]c(=O)[nH]c2c1 [Example 214, N-Cyclohexyl-8-morpholino-3-(2-oxo-1,3-dihydrobenzimidazol-5-yl)imidazo[1,2-a]pyrazine-2-carboxamide]",31.6
14,"O=C1Cc2cc(-c3c(-c4ccc(F)cc4)nc4c(NC5CCNC5=O)nccn34)ccc2N1 (stereo not shown) [Example 40, 5-[2-(4-Fluorophenyl)-8-[(2-oxopyrrolidin-3-yl)amino]imidazo[1,2-a]pyrazin-3-yl]indolin-2-one]",251
15,"COC1CN(c2nccc3c(-c4ccc5c(c4)CC(=O)N5)c(C4CCCC4)nn23)C1 [Example 195, 5-[2-Cyclopentyl-7-(3-methoxyazetidin-1-yl)pyrazolo[1,5-c]pyrimidin-3-yl]indolin-2-one]",316
16,"O=c1[nH]c2ccc(-c3c(-c4ccccc4)nn4cnc(C(F)(F)F)cc34)cc2o1 [Example 223, 6-[2-Phenyl-5-(trifluoromethyl)pyrazolo[1,5-c]pyrimidin-3-yl]-3H-1,3-benzoxazol-2-one]",501
17,"O=C1CN(c2nccn3c(-c4ccc5c(c4)CC(=O)N5)c(-c4ccc(F)cc4)nc23)CCN1 [Example 32, 5-[2-(4-Fluorophenyl)-8-(3-oxopiperazin-1-yl)imidazo[1,2-a]pyrazin-3-yl]indolin-2-one]",0.501
18,"O=C1Cc2cc(-c3c(C(=O)Nc4ccccc4)nc4c(N5CCOCC5)nccn34)ccc2N1 [Example 137, 8-Morpholino-3-(2-oxoindolin-5-yl)-N-phenylimidazo[1,2-a]pyrazine-2-carboxamide]",6.31
19,"O=C1Cc2cc(-c3c(-c4ccc(F)cc4)nc4c(N5CCOC(C(F)(F)F)C5)nccn34)ccc2N1 (stereo not shown) [Example 42, 5-[2-(4-Fluorophenyl)-8-[2-(trifluoromethyl)morpholin-4-yl]imidazo[1,2-a]pyrazin-3-yl]indolin-2-one]",7.94

row,Structure (SMILES),IC50 [nM]
1,"O=C(NCc1ccccc1)c1nc2c(N3CCOCC3)nccn2c1-c1ccc2[nH]c(=O)[nH]c2c1 [Example 139, N-Benzyl-8-morpholino-3-(2-oxo-1,3-dihydrobenzimidazol-5-yl)imidazo[1,2-a]pyrazine-2-carboxamide]",25.1
2,"O=c1[nH]c2ccc(-c3c(-c4ccc(F)cc4)nc4c(N5CC6(COC6)C5)nccn34)cc2[nH]1 [Example 26, 5-[2-(4-Fluorophenyl)-8-(6-oxa-2-azaspiro[3.3]heptan-2-yl)imidazo[1,2-a]pyrazin-3-yl]-1,3-dihydrobenzimidazol-2-one]",5.01
3,"O=C1Cc2cc(-c3c(-c4ccc(F)cc4)nc4c(N5CC(CO)C5)nccn34)ccc2N1 [Example 64, 5-[2-(4-Fluorophenyl)-8-[3-(hydroxymethyl)azetidin-1-yl]imidazo[1,2-a]pyrazin-3-yl]indolin-2-one]",0.794
4,"CN(C)c1nccn2c(-c3ccc4c(c3)CC(=O)N4)c(-c3ccc(F)cc3)nc12 [Example 141, 5-[8-(Dimethylamino)-2-(4-fluorophenyl)imidazo[1,2-a]pyrazin-3-yl]indolin-2-one]",0.794
5,"O=C1Cc2cc(-c3c(-c4ccc(F)cc4)nc4c(N5CCC6(CC5)N=N6)nccn34)ccc2N1 [Example 185, 5-(2-(4-Fluorophenyl)-8-(1,2,6-triazaspiro[2.5]oct-1-en-6-yl)imidazo[1,2-a]pyrazin-3-yl)indolin-2-one]",0.158
6,"O=C1Cc2cc(-c3c(-c4ccccc4)nn4c(OC5CCCC5)nccc34)ccc2N1 [Example 192, 5-[7-(Cyclopentoxy)-2-phenyl-pyrazolo[1,5-c]pyrimidin-3-yl]indolin-2-one]",7.94
7,"CC1(O)CCN(c2nccc3c(-c4ccc5c(c4)CC(=O)N5)c(-c4ccc(F)cc4)nn23)CC1 [Example 186, 5-[2-(4-Fluorophenyl)-7-(4-hydroxy-4-methyl-1-piperidyl)pyrazolo[1,5-c]pyrimidin-3-yl]indolin-2-one]",0.2
8,"COC1CCN(c2nccc3c(-c4ccc5[nH]c(=O)sc5c4)c(-c4ccccc4)nn23)CC1 [Example 213, 6-[7-(4-Methoxy-1-piperidyl)-2-phenyl-pyrazolo[1,5-c]pyrimidin-3-yl]-3H-1,3-benzothiazol-2-one]",0.0631
9,"O=C1Cc2cc(-c3c(C4CC4)nn4cnc(C(F)(F)F)cc34)ccc2N1 [Example 228, 5-[2-Cyclopropyl-5-(trifluoromethyl)pyrazolo[1,5-c]pyrimidin-3-yl]indolin-2-one]",39800
10,"O=C1Cc2cc(-c3c(-c4ccccc4)nn4cnc(C(F)(F)F)cc34)ccc2N1 [Example 222, 5-[2-Phenyl-5-(trifluoromethyl)pyrazolo[1,5-c]pyrimidin-3-yl]indolin-2-one]",12.6
11,"O=C1Cc2cc(-c3c(-c4ccc(F)cc4)nc4c(F)nccn34)ccc2N1 [Example 132, 5-[8-Fluoro-2-(4-fluorophenyl)imidazo[1,2-a]pyrazin-3-yl]indolin-2-one]",631
12,"O=C(Nc1ccncc1)c1nc2c(N3CCOCC3)nccn2c1-c1ccc2[nH]c(=O)[nH]c2c1 [Example 147, 8-Morpholino-3-(2-oxo-1,3-dihydrobenzimidazol-5-yl)-N-(4-pyridyl)imidazo[1,2-a]pyrazine-2-carboxamide]",501
13,"CC(C)c1nn2c(N3CCOCC3)nccc2c1-c1ccc2[nH]c(=O)sc2c1 [Example 240, 6-(2-Isopropyl-7-morpholino-pyrazolo[1,5-c]pyrimidin-3-yl)-3H-1,3-benzothiazol-2-one]",15.8
14,"O=S1(=O)Cc2cc(-c3c(-c4ccc(F)cc4)nc4c(N5CCOCC5)nccn34)ccc2N1 [Example 117, 5-[2-(4-Fluorophenyl)-8-morpholino-imidazo[1,2-a]pyrazin-3-yl]-1,3-dihydro-2,1-benzothiazole 2,2-dioxide]",3.98
15,"CN(C)c1nccn2c(-c3ccc4c(c3)CC(=O)N4)c(C(=O)Nc3ccccc3)nc12 [Example 144, 8-(Dimethylamino)-3-(2-oxoindolin-5-yl)-N-phenyl-imidazo[1,2-a]pyrazine-2-carboxamide]",6.31
16,"COC1CCN(c2nccc3c(-c4ccc5[nH]ncc5c4)c(C(C)C)nn23)CC1 [Example 237, 3-(1H-indazol-5-yl)-2-isopropyl-7-(4-methoxy-1-piperidyl)pyrazolo[1,5-c]pyrimidine]",126
17,"O=C1Cc2cc(-c3c(-c4ccc(F)cc4)nc4c(N5CC[C@@H](O)C5)nccn34)ccc2N1 (single isomer, unassigned) [Example 52, (R*)-5-[2-(4-Fluorophenyl)-8-(3-hydroxypyrrolidin-1-yl)imidazo[1,2-a]pyrazin-3-yl]indolin-2-one]",1.58
18,"Cc1cc(O)ccc1-c1c(-c2ccc(F)cc2)nc2c(N3CCOCC3)nccn12 [Example 2, 4-[2-(4-Fluorophenyl)-8-morpholino-imidazo[1,2-a]pyrazin-3-yl]-3-methyl-phenol]",31.6
